Reference: patent publication US20100062517A1, “In situ production of microbial pigments for metal and actinide immobilization” (priority 2008, published 2010)

Legend:
Tims Branch soil = assay: Field soil columns treated with tyrosine; parameters: species or system indigenous soil bacteria
Experimental: Additionally, the following soil properties were analyzed: percent organic matter by loss-on-ignition at a temperature of 375° C. and pH was determined from a 1:1 mineral/water equilibration solution. Also, total concentration of U in a homogenized soil sample was determined by a total microwave digestion of 0.6 g of homogenized soil material with concentrated acids (10 ml of HNO3, 4 ml of H2SO4, and 2 ml of HCl). The resulting extract solution was analyzed by ICP-MS. Changes in the organic content of soils due to pyomelanin production were also determined by spectrophotometric absorbance (400 nm) of particle free supernatants and Fourier transform infrared (FTIR) spectroscopy. Soil samples were removed (5-10 g/column) 28 days after treatment addition for pore water analysis. Optical density was determined for centrifuged soil to determine the degree of pigmentation resulting from tyrosine amendments. Dried pigments from soil effluents (60° C.) were then further characterized using FTIR spectroscopy and compared to that of pure tyrosine and dihydroxyphenylalanine (DOPA) melanin (Aldrich Chemicals). […] All samples were analyzed using a ThermoElectron Smart Orbit diamond single bounce attenuated total reflectance accessory. […] During field incubation rainfall was measured at 12.1 cm. […] Samples were processed the next day and analyzed for metals and pH.

4-HPPD = assay: Pigment production in pure cultures of soil isolates with sulcotrione; assay type: cell-based, soil isolates (bacteria); conditions: sulcotrione 18 μM, LBSM with tyrosine 1 g/l, absorbance 400 nm, relative to no inhibitor
Text: Initial characterization of pigment included intensity of coloration and diffusion through agar media. Dark black non-diffusive pigments are indicative of DOPA melanin whereas reddish brown diffusive pigments are more likely pyomelanin. The chemical sulcotrione (Zeneca Agrochemicals) was used as a specific competitive inhibitor of 4-HPPD, the enzyme required for pyomelanin production. Methods incorporated sulcotrione to determine if pigment production was a result of 4-HPPD. Pure cultures of soil isolates were grown in LBSM and tyrosine (1 g/l) was supplemented to promote pigment production. Sulcotrione (18 μM) was added prior to pigmentation in order to differentiate pyomelanin production from other pigments that may be produced. Pigment production was quantified spectrophotometrically (400 nm) in cell free culture fluid. Controls for comparison were without tyrosine or without sulcotrione.

Row | SMILES | U in pore water compared to controls (Tims Branch soil; 30 days after treatment, 10, 30 and 50 cm depths) | Duration of U immobilization (Tims Branch soil; one-time addition of tyrosine to soil) | Pigment production in bacterial cultures (4-HPPD)
1 | N[C@@H](Cc1ccc(O)cc1)C(=O)O [tyrosine] | significantly decreased | at least 13 months | –
2 | CS(=O)(=O)c1ccc(C(=O)C2C(=O)CCCC2=O)c(Cl)c1 [sulcotrione] | – | – | halted
